Results as given in the NIST ThermoML archive (doi:10.1016/j.jct.2009.09.013).

Test: xn = mol fraction of the nth substance listed
Conditions: 101 kPa, Liquid; for speed of sound: Sing-around technique in a fixed-path interferometer; for kinematic viscosity: Vibrating wire viscometry; for mass density: Vibrating tube method

CCCCO [butan-1-ol] + OCCCCO
x2 = 0
Conditions | kinematic viscosity [m2/s] | mass density [kg/m3] | speed of sound [m/s]
293.03 K | – | – | 1257
298.02 K | 3.24e-06 | – | –
298.07 K | – | – | 1239.7
298.15 K | – | 805.77 | –
302.47 K | 2.9e-06 | – | –
303.15 K | – | 801.928 | –
303.35 K | – | – | 1221.6
308 K | 2.53e-06 | – | –
308.15 K | – | 798.054 | –
308.34 K | – | – | 1204.8
312.96 K | 2.25e-06 | – | –
313.15 K | – | 794.146 | –
313.37 K | – | – | 1188
318.15 K | – | 790.196 | –
318.37 K | – | – | 1171.4
318.61 K | 1.99e-06 | – | –

OCCCCO [1,4-butanediol] + CCCCO
Conditions | kinematic viscosity [m2/s] | mass density [kg/m3] | speed of sound [m/s]
293.02 K, x1 = 1 | – | – | 1614.9
293.03 K, x1 = 0.7946 | – | – | 1537.8
293.05 K, x1 = 0.6478 | – | – | 1482.1
293.05 K, x1 = 0.9234 | – | – | 1586.4
293.06 K, x1 = 0.3571 | – | – | 1375.1
293.06 K, x1 = 0.4979 | – | – | 1426
293.07 K, x1 = 0.2 | – | – | 1321
293.08 K, x1 = 0.051 | – | – | 1272.7
298.01 K, x1 = 1 | 6.99e-05 | – | –
298.06 K, x1 = 0.4592 | 1.56e-05 | – | –
298.06 K, x1 = 1 | – | – | 1602.6
298.07 K, x1 = 0.1507 | 5.44e-06 | – | –
298.07 K, x1 = 0.9374 | 6e-05 | – | –
298.08 K, x1 = 0.2 | – | – | 1304.8
298.08 K, x1 = 0.5676 | 2.18e-05 | – | –
298.08 K, x1 = 0.6478 | – | – | 1468.3
298.08 K, x1 = 0.7946 | – | – | 1524.7
298.09 K, x1 = 0.3571 | – | – | 1359.7
298.09 K, x1 = 0.7435 | 3.62e-05 | – | –
298.1 K, x1 = 0.051 | – | – | 1255.7
298.1 K, x1 = 0.4979 | – | – | 1411.3
298.1 K, x1 = 0.6576 | 2.84e-05 | – | –
298.1 K, x1 = 0.8108 | 4.34e-05 | – | –
298.1 K, x1 = 0.9234 | – | – | 1573.9
298.14 K, x1 = 0.2986 | 9.22e-06 | – | –
298.15 K, x1 = 0.1507 | – | 837.834 | –
298.15 K, x1 = 0.2986 | – | 869.164 | –
298.15 K, x1 = 0.4592 | – | 902.986 | –
298.15 K, x1 = 0.5676 | – | 925.394 | –
298.15 K, x1 = 0.6576 | – | 943.952 | –
298.15 K, x1 = 0.7435 | – | 961.447 | –
298.15 K, x1 = 0.8108 | – | 974.991 | –
298.15 K, x1 = 0.9374 | – | 1000.24 | –
298.15 K, x1 = 1 | – | 1012.72 | –
302.51 K, x1 = 1 | 5.63e-05 | – | –
302.99 K, x1 = 0.9374 | 4.76e-05 | – | –
303 K, x1 = 0.6576 | 2.33e-05 | – | –
303.01 K, x1 = 0.1507 | 4.68e-06 | – | –
303.01 K, x1 = 0.5676 | 1.8e-05 | – | –
303.01 K, x1 = 0.7435 | 2.93e-05 | – | –
303.01 K, x1 = 0.8108 | 3.49e-05 | – | –
303.04 K, x1 = 0.4592 | 1.3e-05 | – | –
303.06 K, x1 = 0.2986 | 7.83e-06 | – | –
303.15 K, x1 = 0.1507 | – | 834.13 | –
303.15 K, x1 = 0.2986 | – | 865.589 | –
303.15 K, x1 = 0.4592 | – | 899.553 | –
303.15 K, x1 = 0.5676 | – | 922.055 | –
303.15 K, x1 = 0.6576 | – | 940.685 | –
303.15 K, x1 = 0.7435 | – | 958.245 | –
303.15 K, x1 = 0.8108 | – | 971.848 | –
303.15 K, x1 = 0.9374 | – | 997.175 | –
303.15 K, x1 = 1 | – | 1009.69 | –
303.3 K, x1 = 1 | – | – | 1590.1
303.36 K, x1 = 0.2 | – | – | 1287.8
303.36 K, x1 = 0.4979 | – | – | 1396.1
303.36 K, x1 = 0.7946 | – | – | 1511
303.36 K, x1 = 0.9234 | – | – | 1561
303.37 K, x1 = 0.051 | – | – | 1238
303.37 K, x1 = 0.3571 | – | – | 1343.7
303.39 K, x1 = 0.6478 | – | – | 1453.8
308.06 K, x1 = 1 | 4.37e-05 | – | –
308.15 K, x1 = 0.1507 | – | 830.397 | –
308.15 K, x1 = 0.2986 | – | 861.995 | –
308.15 K, x1 = 0.4592 | – | 896.107 | –
308.15 K, x1 = 0.5676 | – | 918.702 | –
308.15 K, x1 = 0.6576 | – | 937.408 | –
308.15 K, x1 = 0.7435 | – | 955.036 | –
308.15 K, x1 = 0.8108 | – | 968.692 | –
308.15 K, x1 = 0.9374 | – | 994.107 | –
308.15 K, x1 = 1 | – | 1006.66 | –
308.16 K, x1 = 0.9374 | 3.79e-05 | – | –
308.17 K, x1 = 0.6576 | 1.9e-05 | – | –
308.18 K, x1 = 0.4592 | 1.09e-05 | – | –
308.19 K, x1 = 0.8108 | 2.8e-05 | – | –
308.22 K, x1 = 0.1507 | 3.96e-06 | – | –
308.22 K, x1 = 0.2986 | 6.63e-06 | – | –
308.23 K, x1 = 0.5676 | 1.48e-05 | – | –
308.24 K, x1 = 0.7435 | 2.37e-05 | – | –
308.32 K, x1 = 0.7946 | – | – | 1498.4
308.32 K, x1 = 1 | – | – | 1578.3
308.33 K, x1 = 0.051 | – | – | 1221.5
308.33 K, x1 = 0.9234 | – | – | 1548.9
308.35 K, x1 = 0.3571 | – | – | 1328.7
308.35 K, x1 = 0.4979 | – | – | 1381.9
308.36 K, x1 = 0.2 | – | – | 1272
308.38 K, x1 = 0.6478 | – | – | 1440.3
313.12 K, x1 = 1 | 3.51e-05 | – | –
313.15 K, x1 = 0.1507 | – | 826.639 | –
313.15 K, x1 = 0.2986 | – | 858.379 | –
313.15 K, x1 = 0.4592 | – | 892.64 | –
313.15 K, x1 = 0.5676 | – | 915.331 | –
313.15 K, x1 = 0.6576 | – | 934.116 | –
313.15 K, x1 = 0.7435 | – | 951.814 | –
313.15 K, x1 = 0.8108 | – | 965.521 | –
313.15 K, x1 = 0.9374 | – | 991.027 | –
313.15 K, x1 = 1 | – | 1003.63 | –
313.19 K, x1 = 0.9374 | 3.06e-05 | – | –
313.2 K, x1 = 0.6757 | 1.57e-05 | – | –
313.21 K, x1 = 0.5676 | 1.24e-05 | – | –
313.23 K, x1 = 0.4592 | 9.16e-06 | – | –
313.23 K, x1 = 0.7435 | 1.95e-05 | – | –
313.23 K, x1 = 0.8108 | 2.29e-05 | – | –
313.26 K, x1 = 0.1507 | 3.36e-06 | – | –
313.29 K, x1 = 0.2986 | 5.65e-06 | – | –
313.32 K, x1 = 0.051 | – | – | 1204.9
313.33 K, x1 = 0.7946 | – | – | 1485.7
313.35 K, x1 = 1 | – | – | 1566.5
313.36 K, x1 = 0.3571 | – | – | 1313.8
313.36 K, x1 = 0.9234 | – | – | 1536.8
313.37 K, x1 = 0.2 | – | – | 1256.2
313.37 K, x1 = 0.4979 | – | – | 1367.6
313.39 K, x1 = 0.6478 | – | – | 1426.9
318.15 K, x1 = 0.1507 | – | 822.854 | –
318.15 K, x1 = 0.2986 | – | 854.74 | –
318.15 K, x1 = 0.4592 | – | 889.157 | –
318.15 K, x1 = 0.5676 | – | 911.95 | –
318.15 K, x1 = 0.6576 | – | 930.812 | –
318.15 K, x1 = 0.7435 | – | 948.578 | –
318.15 K, x1 = 0.8108 | – | 962.345 | –
318.15 K, x1 = 0.9374 | – | 987.943 | –
318.15 K, x1 = 1 | – | 1000.58 | –
318.29 K, x1 = 0.051 | – | – | 1188.5
318.3 K, x1 = 0.7946 | – | – | 1473.1
318.35 K, x1 = 0.3571 | – | – | 1299.1
318.35 K, x1 = 0.4979 | – | – | 1353.5
318.35 K, x1 = 1 | – | – | 1554.8
318.36 K, x1 = 0.9234 | – | – | 1525
318.38 K, x1 = 0.2 | – | – | 1240.6
318.38 K, x1 = 0.6478 | – | – | 1413.6
318.56 K, x1 = 0.8108 | 1.87e-05 | – | –
318.72 K, x1 = 1 | 2.79e-05 | – | –
318.73 K, x1 = 0.9374 | 2.45e-05 | – | –
318.74 K, x1 = 0.6575 | 1.29e-05 | – | –
318.75 K, x1 = 0.5676 | 1.03e-05 | – | –
318.75 K, x1 = 0.7435 | 1.59e-05 | – | –
318.76 K, x1 = 0.4592 | 7.65e-06 | – | –
318.8 K, x1 = 0.1507 | 2.79e-06 | – | –
318.81 K, x1 = 0.2986 | 4.76e-06 | – | –
